The subject of the experiment is E. coli (ATCC 8739). Put plainly: Zone of Inhibition (ZOI), sample pellets on agar. Conditions: for diameter of the ZOI: pellets with 20 wt % cellulose binder (Tables 1 and 2).
Setting [1] is: E. coli, 24 h incubation at 37° C.

Experimental: Zone of Inhibition (ZOI). […] The cultures were streaked on Luria Agar (LB) plates and incubated overnight at 37° C. […] 50 μL of this stock suspension was spread homogeneously on a trypticase soy agar (TSA) plate (diameter 10 cm).

As for basic copper(II) carbonate [BCC], for the setting “E. coli, 24 h incubation at 37° C., cellulose binder, average of 3 trials”, the “Zone of Inhibition Diameter (mm) Avg” value amounted to 12 mm. Zinc borate: the “diameter of the ZOI” value under setting [1] is given as “No ZOI”. For the same substance, for the setting “compound alone”, the “antimicrobial efficacy in the zone of inhibition testing” value is reported as “no significant antimicrobial efficacy”. With “molybdenum (VI) oxide [molybdenum oxide]”, under setting [1], the “diameter of the ZOI” value was 19 mm.
